These results are taken from US20070249620A1, “Urea Derivative” (priority 2004, published 2007).

What is called melting point is the temperature of the solid-liquid transition.

Series [1] deals with T1, mouse DGAT1 (Mus musculus, UniProt Q9Z2A7).
T1 construct: made in house; host or cells: insect cells (High Five, Sf9, Sf21, etc.), baculovirus expression system (Invitrogen)
T1 sequence (Q9Z2A7 1-498): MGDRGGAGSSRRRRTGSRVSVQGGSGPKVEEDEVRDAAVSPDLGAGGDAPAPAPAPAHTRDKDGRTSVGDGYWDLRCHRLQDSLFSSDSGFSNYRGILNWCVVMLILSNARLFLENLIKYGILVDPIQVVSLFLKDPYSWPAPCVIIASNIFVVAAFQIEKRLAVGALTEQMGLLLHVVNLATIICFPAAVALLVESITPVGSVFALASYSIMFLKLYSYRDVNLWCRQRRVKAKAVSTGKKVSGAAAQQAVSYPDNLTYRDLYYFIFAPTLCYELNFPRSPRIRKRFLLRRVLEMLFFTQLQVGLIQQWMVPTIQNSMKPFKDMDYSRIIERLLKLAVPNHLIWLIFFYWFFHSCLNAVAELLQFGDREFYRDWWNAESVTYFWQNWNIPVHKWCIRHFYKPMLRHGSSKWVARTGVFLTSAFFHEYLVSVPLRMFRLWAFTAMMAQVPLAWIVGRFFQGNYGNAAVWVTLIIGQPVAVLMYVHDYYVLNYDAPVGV
In words: DGAT1 inhibitory effect test (microsome fraction, [14C]-oleoyl-CoA, triglyceride radioactivity by TLC). In kind it is biochemical. To be noted: 0.5 h; concentration of the test compound 0.1 μg/ml; mouse DGAT1 microsomes, 23° C., 30 minutes; read-out: Inhibitory ratio. How it is done:
The cDNA which encodes mouse DGAT1 was cloned from a mouse cDNA library by polymerase chain reaction (hereinafter referred to as “PCR”) and introduced into an insect cell virus vector (baculovirus expression system, Invitrogen). After insect cells (High Five, Sf9, Sf21, etc., Invitrogen) were infected with the virus, the cells were collected in buffer A [0.1M sucrose, 50 mM KCl, 40 mM potassium phosphate (pH 7.4), 30 mM EDTA, 1% Protease inhibitor cocktail (SIGMA, P-8340)] and crushed with a Polytron homogenizer. The supernatant obtained by subjecting the homogenate to low speed centrifugal processing (10,000 ×g, 30 minutes) was further subjected to higher-speed centrifugal processing (100,000 ×g, 60 minutes) and the precipitate was resuspended in buffer A as the microsome fraction and used as DGAT1 enzyme. The DGAT1 enzyme was divided into small volumes and stored at −80° C.
(2) DGAT1 Inhibitory Effect Test
The reaction liquid of the following composition [175 mM Tris-HCl (pH 8.0), 8 mM MgCl2, 1 mg/ml BSA, 0.5 mM 1,2-dioleoyl-sn-glycerol (EtOH solution of 10-fold concentration, 10% added), 30 μM[14C]-oleoyl-CoA (about 50 mCi/mmol), 0.5% triton X-100, DGAT1 enzyme (10 μg) obtained in Test Example 1(1), test compound or vehicle (DMSO/MeOH, 7:3 solution, 5% added), total volume 50 μl] was incubated at room temperature (23° C.) for 30 minutes. A reaction terminating solution (70 μl) consisting of isopropanol/1-heptane/water (80:20:2, v/v/v) was added to the reaction solution and stirred, and subsequently stirred with water (30 μl) and 1-heptane (100 μl). The 1-heptane layer (50 μl) was spotted onto a TLC plate and developed with a developing solvent consisting of 1-hexane/diethyl ether/acetic acid (85:15:1, v/v/v). Radioactivity of triglyceride fraction was quantified by BAS2000 bio image analyzer (Fuji Film) and the inhibitory effect of the test compounds was calculated by the following formula through comparison with control. Here, radioactivity at no reaction (0 minutes incubation) was assumed as background. Inhibitory ratio=100−[(Radioactivity when test compound was added)−(Background)]/[(Radioactivity by control)−(Background)]×100

As for `CC(C)c1ccc(NC(=O)Nc2ccc(N3CCN(C(=O)OC(C)(C)C)CC3)cc2)cc1` [Example 22, 4-{4-[3-(4-isopropyl-phenyl)-ureido]-phenyl}-piperazine-1-carboxylic acid tert-butyl ester], the melting point stood at 210 °C. Also, the inhibition at 0.1 µg/mL in series [1] was not below 50%.

Compound `CC(C)(C)OC(=O)N1CCN(c2ccc(NC(=O)Nc3ccc(C(C)(C)C)cc3)cc2)CC1` [Example 33, 4-{4-[3-(4-tert-butyl-phenyl)-ureido]-phenyl}-piperazine-1-carboxylic acid tert-butyl ester] showed a melting point of 140 to 141 °C. Further, in series [1], the inhibition at 0.1 µg/mL is not below 50%. The like results for `Cc1ccc(Cl)cc1NC(=O)Nc1ccc(N2CCN(C(=O)OC(C)(C)C)CC2)cc1` [Example 35, 4-{4-[3-(5-chloro-2-methyl-phenyl)-ureido]-phenyl}-piperazine-1-carboxylic acid tert-butyl ester] were, in that order, 200 °C and not below 50%. In the case of `Cc1ccc(F)c(NC(=O)Nc2ccc(N3CCN(C(=O)OC(C)(C)C)CC3)cc2)c1` [Example 37, 4-{4-[3-(2-fluoro-5-methyl-phenyl)-ureido]-phenyl}-piperazine-1-carboxylic acid tert-butyl ester], the melting point was 211 to 214 °C. Also, the inhibition at 0.1 µg/mL in series [1] was not below 50%. The corresponding values for `CCOc1ccccc1NC(=O)Nc1ccc(N2CCN(C(=O)OC(C)(C)C)CC2)nc1` [Example 39, 4-{5-[3-(2-ethoxy-phenyl)-ureido]-pyridin-2-yl}-piperazine-1-carboxylic acid tert-butyl ester] are 162 °C and not below 50%.

Compound `COc1ccc(Cl)cc1NC(=O)Nc1ccc(N2CCN(C(=O)OC(C)(C)C)CC2)nc1` [Example 40, 4-{5-[3-(5-chloro-2-methoxy-phenyl)-ureido]-pyridin-2-yl}-piperazine-1-carboxylic acid tert-butyl ester] displayed a melting point of 155 to 157 °C. Besides, the inhibition at 0.1 µg/mL in series [1] is not below 50%.

`CCOc1ccc(F)cc1NC(=O)Nc1ccc(N2CCN(C(=O)OC(C)(C)C)CC2)nc1` [Example 46, 4-{5-[3-(2-ethoxy-5-fluoro-phenyl)-ureido]-pyridin-2-yl}-piperazine-1-carboxylic acid tert-butyl ester] displayed a melting point of 180 °C. Further, the inhibition at 0.1 µg/mL in series [1] was not below 50%. The like results for `COc1ccc(C)cc1NC(=O)Nc1ccc(N2CCN(C(=O)Nc3ccccc3C(F)(F)F)CC2)cc1` [Example 53, 4-{4-[3-(2-methoxy-5-methyl-phenyl)-ureido]-phenyl}-piperazine-1-carboxylic acid (2-trifluoromethyl-phenyl)-amide] were, in that order, 170 to 171 °C and not below 50%. `COc1ccc(C)cc1NC(=O)Nc1ccc(N2CCN(C(=O)Nc3ccccc3C)CC2)cc1` [Example 54, 4-{4-[3-(2-methoxy-5-methyl-phenyl)-ureido]-phenyl}-piperazine-1-carboxylic acid o-tolylamide] gave a melting point of 209 to 211 °C. The inhibition at 0.1 µg/mL in series [1] is not below 50%. The like results for `COc1ccc(C)cc1NC(=O)Nc1ccc(N2CCN(C(=O)Nc3ccccc3Br)CC2)cc1` [Example 57, 4-{4-[3-(2-methoxy-5-methyl-phenyl)-ureido]-phenyl}-piperazine-1-carboxylic acid (2-bromo-phenyl)-amide] were, in that order, 212 to 214 °C and not below 50%.

In turn, `CCc1ccccc1NC(=O)N1CCN(c2ccc(NC(=O)Nc3cc(C)ccc3OC)cc2)CC1` [Example 58, 4-{4-[3-(2-methoxy-5-methyl-phenyl)-ureido]-phenyl}-piperazine-1-carboxylic acid (2-ethyl-phenyl)-amide] came in with a melting point of 220 to 221 °C. Moreover, the inhibition at 0.1 µg/mL in series [1] was not below 50%.

In turn, `COc1ccc(C)cc1NC(=O)Nc1ccc(N2CCN(C(=O)Nc3c(C)cccc3Cl)CC2)cc1` [Example 59, 4-{4-[3-(2-methoxy-5-methyl-phenyl)-ureido]-phenyl}-piperazine-1-carboxylic acid (2-chloro-6-methyl-phenyl)-amide] registered a melting point of 143 to 145 °C. In addition, in series [1], the inhibition at 0.1 µg/mL was not below 50%. The like results for `COc1ccc(C)cc1NC(=O)Nc1ccc(N2CCN(C(=O)Nc3c(C)cccc3[N+](=O)[O-])CC2)cc1` [Example 60, 4-{4-[3-(2-methoxy-5-methyl-phenyl)-ureido]-phenyl}-piperazine-1-carboxylic acid (2-methyl-6-nitro-phenyl)-amide] were, in that order, 213 to 215 °C and not below 50%. The corresponding values for `COc1ccc(C)cc1NC(=O)Nc1ccc(N2CCN(C(=O)Nc3ccccc3C#N)CC2)cc1` [Example 61, 4-{4-[3-(2-methoxy-5-methyl-phenyl)-ureido]-phenyl}-piperazine-1-carboxylic acid (2-cyano-phenyl)-amide] are 210 to 212 °C and not below 50%. Take `COc1ccc(C)cc1NC(=O)Nc1ccc(N2CCN(C(=O)Nc3c(C)cccc3C)CC2)cc1` [Example 62, 4-{4-[3-(2-methoxy-5-methyl-phenyl)-ureido]-phenyl}-piperazine-1-carboxylic acid (2,6-dimethyl-phenyl)-amide]: the melting point was 212 to 214 °C. The inhibition at 0.1 µg/mL in series [1] was not below 50%. The like results for `COc1ccc(C)cc1NC(=O)Nc1ccc(N2CCN(C(=O)Nc3c(F)cccc3C(F)(F)F)CC2)cc1` [Example 64, 4-{4-[3-(2-methoxy-5-methyl-phenyl)-ureido]-phenyl}-piperazine-1-carboxylic acid (2-fluoro-6-trifluoromethyl-phenyl)-amide] were, in that order, 134 to 136 °C and not below 50%. The like results for `COc1ccc(C)cc1NC(=O)Nc1ccc(N2CCN(C(=O)Nc3c(Cl)cccc3Cl)CC2)cc1` [Example 65, 4-{4-[3-(2-methoxy-5-methyl-phenyl)-ureido]-phenyl}-piperazine-1-carboxylic acid (2,6-dichloro-phenyl)-amide] were, in that order, 210 to 221 °C and not below 50%. The corresponding values for `COc1ccc(C)cc1NC(=O)Nc1ccc(N2CCN(C(=O)Nc3c(Cl)cccc3C(F)(F)F)CC2)cc1` [Example 66, 4-{4-[3-(2-methoxy-5-methyl-phenyl)-ureido]-phenyl}-piperazine-1-carboxylic acid (2-chloro-6-trifluoromethyl-phenyl)-amide] are 196 to 197 °C and not below 50%. Regarding `COc1ccc(NC(=O)N2CCN(c3ccc(NC(=O)Nc4cc(C)ccc4OC)cc3)CC2)c(C)c1` [Example 73, 4-{4-[3-(2-methoxy-5-methyl-phenyl)-ureido]-phenyl}-piperazine-1-carboxylic acid (4-methoxy-2-methyl-phenyl)-amide], the melting point lay in the range of 193 to 195 °C. The inhibition at 0.1 µg/mL in series [1] is not below 50%.

With `COc1ccc(C)cc1NC(=O)Nc1ccc2c(c1)CCN(C(=O)Nc1ncccc1C)C2` [Example 297, 6-[3-(2-methoxy-5-methyl-phenyl)-ureido]-3,4-dihydro-1H-isoquinoline-2-carboxylic acid (3-methyl-pyridin-2-yl)-amide], the inhibition at 0.1 µg/mL in series [1] is not below 50%. Same read-out and setting: to `CCOP(=O)(Cc1ccc(NC(=O)N2CCN(c3ccc(NC(=O)Nc4cc(C)ccc4OC)cc3)CC2)c(C)c1)OCC` [Example 390, {4-[(4-{4-[3-(2-methoxy-5-methyl-phenyl)-ureido]-phenyl}-piperazine-1-carbonyl)-amino]-3-methyl-benzyl}-phosphonic acid diethyl ester] belongs not below 50%.
